61 compounds from a melting point compilation (Tetko et al.; mined from patent text by program, amines drawn as free bases though some values may be those of a salt) can be followed below.

In turn, `CC1CN(c2cc3ccccc3c(=O)[nH]2)CCN1` (stereo unspecified) returned a melting point of 164 to 167 °C.

`O=C1C=C/C(=C/c2ccc(C(F)(F)F)cc2)O1` gave a melting point of 92 to 94 °C.

Compound `NC(C(=O)O)c1c(C(=O)O)csc1-c1ccccc1` (stereo unspecified) displayed a melting point of 266 to 271 °C.

Consider `COc1cccc([C@H]2O[C@H](CC(=O)Nc3cccc(CCCCC(=O)O)c3)C(=O)N(CC(C)(C)CO)c3ccc(Cl)cc32)c1OC`, for which the melting point lay within 117 to 119 °C.

Take `CCc1cc2c(ccc(=O)n2Cc2ccc(C(=O)O)cc2)c(CC)n1`: the melting point was 143 to 146 °C.

As to `COc1ccc(-c2nn(C(C)c3oc4ccccc4c(=O)c3-c3cccc(F)c3)c3ncnc(N)c23)cc1OC` (stereo unspecified), the melting point lay in the range of 232 to 235 °C.

Compound `CCCCCCCCCCCCCCCC(=O)OCC(CO)CCn1cnc2c(=O)[nH]c(N)nc21` (stereo unspecified) showed a melting point of 183 to 191 °C.

With `Clc1ccc2c(N3CCCC4CCCC(N5CCCC5)C43)ccnc2c1` (stereo unspecified), the melting point is 136 to 138 °C.

`CC(C)(C)OC(=O)NCC(=O)N1CCC(=C2c3ccc(Cl)cc3CCc3cccnc32)CC1`: the melting point was in the range of 209 to 211 °C.

Compound `CCCC(=O)OC1CSC(Oc2cccnc2)C(OC(=O)CCC)C1OC(=O)CCC` (stereo unspecified) displayed a melting point of 70 °C.

The compound `CN(CC(=O)O)C(=O)CCc1nc2c(F)c(F)cc(F)c2s1` yielded a melting point of 138 to 140 °C.

As for `COc1nc(C)cnc1NS(=O)(=O)c1ccccc1-c1ccc(CC(C)C)c([N+](=O)[O-])c1`, the melting point fell in the range of 114 to 115 °C.

Compound `CCOC(=O)N1CCN(C(=O)Cn2sc3ccccc3c2=O)CC1` displayed a melting point of 158 to 160 °C.

Take `COc1ccc2c3c([nH]c2c1[N+](=O)[O-])C(O)CC3` (stereo unspecified): the melting point stood at 192 °C.

Consider `CC1(O)CC(=O)OC(CCc2ccc(OCc3ccccc3)cc2)C1Br` (stereo unspecified), for which the melting point lay in the range of 155 to 160 °C.

With `O=S(=O)(Nc1ccccc1O)c1ccccc1`, the melting point turned out to be 140 °C.

`O=c1nc(-c2cccc(S(=O)(=O)CCc3ccccc3)n2)sc2ccccc12` came in with a melting point of 162 to 164 °C.

`O=C1CC2(CC(=O)O1)c1ccccc1Oc1ccccc12`: the melting point lay within 188 to 190 °C.

Compound `Fc1ccc2c(c1)Oc1ccccc1-c1nc(SC(F)(F)C(F)F)[nH]c1-2` displayed a melting point of 172 to 175 °C.

Compound `Cc1cc(Cl)ccc1-c1nc(=O)c2ccccc2s1` gave a melting point of 134 °C.

Compound `CSc1ncc2c(n1)N(Cc1ccc(F)c(F)c1)c1ccccc1-n1nnnc1-2` registered a melting point of 281 to 283 °C.

As for `CCC(CC)NC(=O)c1ccc(-c2scc(-c3ccccc3Cl)c2CC(=O)O)cc1`, the melting point was in the range of 101 to 103 °C.

For `CC(C)Cc1sc2c(c1C(=O)c1ccccc1)CCC2C(=O)O` (stereo unspecified), the melting point was in the range of 106 to 108 °C.

Take `O=C(O)C(CBr)N(C(=O)c1ccccc1)N1C(=O)CCC1=O` (stereo unspecified): the melting point is 174 to 177 °C.

`CCc1ccnc2cc(OC)c(OCc3ccccc3)cc12` came in with a melting point of 132 to 134 °C.

`COC(=O)c1ccc(-c2ccc(-c3ccccc3)c(-c3ccc4c(c3)SCCC4(C)C)c2)cc1` showed a melting point of 172 °C.

`C#CCOC(=O)Cn1cccc1-c1nc(-c2ccc(OC)cc2)c(-c2ccc(OC)cc2)s1` yielded a melting point of 100 to 103 °C.

`CCOC(=O)c1ncc2[nH]c3ccccc3c2c1C` showed a melting point of 235 to 239 °C.

Compound `COCCCCN1C(=O)N(c2ccc(C#N)c(C(F)(F)F)c2)C(=O)C1(C)C` registered a melting point of 80 to 81 °C.

On to `O=C(NCCCn1ccnc1)c1ccccc1NS(=O)(=O)c1ccc(Cl)cc1`, for which the melting point fell in the range of 175 to 177 °C.

Regarding `O=C(O)c1ccc(-c2nc(-c3ccc(Cl)s3)co2)cc1`, the melting point is 300 °C.

Consider `OC(c1ccccc1)(c1ncc[nH]1)c1ccc(Cl)cc1Cl` (stereo unspecified), for which the melting point was 176 to 177 °C.

In turn, `CC1=C2c3c(cnc4cc(Cl)ccc34)NC2C(C)CN1` (stereo unspecified) registered a melting point of 188 to 190 °C.

As for `CCOC(=O)c1c(O)c2cc(Cl)ccc2n(C)c1=O`, the melting point is 141 to 143 °C.

Compound `OC(Cc1ccc2ccccc2n1)C(Cl)(Cl)Cl` (stereo unspecified) gave a melting point of 156 to 158 °C.

On to `CCN(CC)CCCN1C(=O)NC(Cc2c[nH]c3ccc(Cl)cc23)C1=O` (stereo unspecified), for which the melting point is 186 °C.

Regarding `CN(C)C=Nc1c(I)c(=O)n(Cc2ccccc2)c(=O)n1C`, the melting point was found to be 186 °C.

On to `COC(=O)[C@H](CC(=O)OC(C)(C)C)NC(=O)c1cccc(NC(=O)c2ccc(C#N)cc2)c1`, for which the melting point was in the range of 83 to 84 °C.

The compound `CCOC(=O)C1=C(C)NC(C)=C(C(=O)OCC)C1c1cccc(F)c1F` gave a melting point of 161 to 162 °C.

`O=C(O)C1CSC(c2ccccc2OCC2CCC(CO[N+](=O)[O-])CC2)N1` (stereo unspecified) returned a melting point of 108 to 111 °C.

Take `CCn1c(C)nc2cc(Sc3cccc4cnccc34)c([N+](=O)[O-])cc21`: the melting point was 236 to 242 °C.

Regarding `COc1cc(OC)c2c(=O)[nH]c(-c3cc(C)c(OCCOCc4ccccc4)c(C)c3)nc2n1`, the melting point is 204 to 206 °C.

Consider `CC1(C)OC(=S)Nc2ccc(-c3cc(Cl)cc(Cl)c3)cc21`, for which the melting point is 206 to 208 °C.

As for `O=C1c2ccc(SCCO)cc2C(=O)c2cc3ccccc3cc21`, the melting point lay within 195 to 196 °C.

`CC(C)(C)c1nnc(-c2nn(-c3ccc(F)cc3F)c3c2C2CCC3C2)o1` (stereo unspecified) returned a melting point of 108 to 110 °C.

`CC(C(O)C=Cc1ccc(Cl)cc1)n1cncn1` (stereo unspecified) yielded a melting point of 117 to 118 °C.

As to `CC1CCCCN1c1cc(F)cc(C(=O)Nc2ccc(OCCN3CCOCC3)c3ccccc23)c1` (stereo unspecified), the melting point fell in the range of 75 to 78 °C.

Consider `CC(C)C[C@@H](CO)NC(=O)[C@H](Cc1c[nH]cn1)N(C(=O)[C@H](Cc1cccc2ccccc12)NC(=O)OCc1ccccc1)C(=O)[C@@H](N)Cc1cccc2ccccc12`, for which the melting point fell in the range of 199 to 200 °C.

In the case of `O=C(O)C(=O)CC(=O)c1cccn1CCc1ccccc1`, the melting point was in the range of 168 to 170 °C.

As for `Cc1ccc(Cc2cnc(NCCCN(Cc3ccccc3)c3ccccn3)[nH]c2=O)cn1`, the melting point was in the range of 90 to 96 °C.

Compound `CC(C)c1cc(O)ccc1OCc1ccccc1` came in with a melting point of 39 to 40 °C.

Regarding `CCOC(=O)CC[C@H](NC(=O)c1ccc(C#Cc2cnc3nc(NC(=O)C(C)(C)C)nc(O)c3c2)cc1)C(=O)OCC`, the melting point was more than 250 °C.

Take `CCC[C@@H]1CCC[C@H](NC(=O)OC(C)(C)C)C(=O)N1`: the melting point was in the range of 114 to 116 °C.

`CCOC(=O)C(C)(C)c1ccc(C(O)CCCN2CCC(C(O)(c3ccccc3)c3ccccc3)CC2)cc1` (stereo unspecified) registered a melting point of 141 to 142 °C.

Compound `CCOc1ccc(C=CC(=O)N2CCc3c([nH]c4ccccc34)C2c2ccc3c(c2)OCO3)cc1` (stereo unspecified) yielded a melting point of 199 to 200 °C.

On to `Cc1cccc(C2=C(c3ccc(S(C)(=O)=O)cc3)CC(CN(C)C)C2O)c1` (stereo unspecified), for which the melting point is 165 to 167 °C.

`O=c1c2cc(F)c(N3CCCC3)cc2n(CCF)c(=O)n1O` had a melting point of 228 to 230 °C.

With `COc1ccc(C2CCCCC2)cc1-c1csc(NC(=O)N2CCN(C[C@@H]3CCCN(CC#N)C3)CC2)n1`, the melting point was 106 °C.

As to `O=Cc1cc2sc3ccccc3c2c2ccccc12`, the melting point fell in the range of 142 to 144 °C.

Consider `COC(=O)c1sc(C)cc1C`, for which the melting point fell in the range of 98 to 101 °C.

Compound `CCc1nc2c(cnn2CC)c(NC2CCOCC2)c1CNC(=O)c1cccc(C(=O)NCc2ccc(OC)c(Br)c2)c1` yielded a melting point of 130 to 132 °C.
